Columns and labels:
[1] = Neuromics in vitro 3D blood-brain barrier model (brain endothelial cells, pericytes, astrocytes); type: in vitro ADME, human; details: human
Description: (§1) To evaluate the in vivo therapeutic activity of Hydroxyureamethyl-acylfulvene in mice bearing glioblastoma U87-SC cells (without any drug treatment in vitro) were inoculated subcutaneously.
(§2) By way of background, the physically, metabolically and immunologically privileged status of the brain presents diagnostic and therapeutic limitations along with treatment-related neurotoxicity issues. A critical property of any drug for GBM would be its ability to penetrate the blood-brain barrier (BBB). […] In the highly representative Neuromics in vitro 3D model that closely recapitulates the human blood-brain barrier, transport properties of the blood-brain barrier are reflected due to the formation of tight junctions, higher expression of specific carriers, or great cell viability. This 3D in vitro model of the blood-brain barrier created by co-culturing brain endothelial cells with pericytes and astrocytes layered in an insert, improves endothelial cell polarization and enhances the formation of tight junctions, provides better endothelial cell-to-cell contact that is important for barrier development, and prevents the dilution of secreted neurotrophic factors. These conditions collectively lead to the development of an in vitro model that can truly mimic the blood-brain barrier. This assay leverages the novel 3D blood-brain barrier model that allows studying both compound transport across the barrier as well as the effect of compounds on the structure and function of the blood-brain barrier. Along with LP-184 and TMZ, the current standard of care chemotherapeutic for GBM, we also compared the behavior of known positive and negative control agents Antipyrine and Cyclosporin A respectively as benchmarks. […] Apparent blood brain barrier permeability measured for TMZ was 1.72*10-4 cm/s at 30 minutes and for LP-184 was 1.53*10-4 cm/s at 30 minutes, as illustrated in the following graph.

[2] = test system: blood-brain barrier; test: as above; type: in vitro ADME, human; details: for blood-brain barrier penetration (in words): in vitro model system
Description: as §1, §2

[3] = test system: glioblastoma U87-SC cells; test: U87 subcutaneous xenograft tumor model of GBM; type: in vivo, mice; details: 4 every other day intravenous doses at 4 mg/kg
Description: as §1

[4] = test system: GBM neurospheres (M1123); test: Mice implanted with GBM neurospheres (M1123), subcutaneous tumor model; type: in vivo

| Papp at 30 min [1] | SMILES | blood-brain barrier integrity ([2]; FIG. 3) | impact on cell viability ([2]; blood-brain barrier model, FIG. 3/4) | blood-brain barrier penetration (in words) [2] | blood-brain barrier penetration (in words) ([2]; listed as Hydroxyureamethyl-acylfulvene) | tumor response [3] | mice with no measurable tumors 12 days post the last dosing ([3]; 5 mice treated) | tumor response ([4]; 4 every other day intravenous doses at 4 mg/kg) | mice with no measurable tumor after 12 days of the last dose ([4]; 4 every other day intravenous doses at 4 mg/kg, four mice) | tumor volume relative to vehicle-treated control mice (physical observation) ([4]; FIG. 7) |
| --- | --- | --- | --- | --- | --- | --- | --- | --- | --- | --- |
| 172 ×10⁻⁶ cm/s | Cn1nnc2c(C(N)=O)ncn2c1=O [TMZ, temozolomide, reference compound] | – | – | – | – | – | – | – | – | – |
| – | CC1=C(CN(O)C(N)=O)C2=C(C)C3(CC3)[C@@](C)(O)C(=O)C2=C1 [LP-184, hydroxyureamethyl-acylfulvene] | not compromised | insignificant impact on cell viability | as effective as TMZ in penetrating the blood-brain barrier | shown to cross the blood-brain barrier | complete tumor regression | all 5 mice | complete tumor regression | Three of four mice | clear tumor growth inhibition |
